Assay results reported in EP0494819B1, “Phenylimidazolidines, their process for fabrication, their application as medicaments and the pharmaceutical compositions containing them” (ROUSSEL UCLAF, priority 1991, dated 1992).

Experiments:
récepteur androgène = target: T1, récepteur androgène (Rattus norvegicus, UniProt P15207); experiment: Affinity for the androgen receptor: relative binding affinity (ARL), displacement of tritiated testosterone in prostate cytosol of castrated rats; parameters: species or system rats mâles Sprague Dawley EOPS; conditions: testosterone = 100, ARL=100 (CH)/(CX); for ARL (affinité relative de liaison), Incubation : 30 minutes: incubation 30 minutes at 0°C; for ARL (affinité relative de liaison), Incubation : 24 heures: incubation 24 hours at 0°C
T1 construct: Des aliquotes du surnageant obtenu (=cytosol), sont incubées 30 minutes et 24 heures à 0°C; from tissue; host or cells: prostate cytosol (105 000 g supernatant) of castrated male Sprague Dawley rats
T1 sequence (P15207 1-902): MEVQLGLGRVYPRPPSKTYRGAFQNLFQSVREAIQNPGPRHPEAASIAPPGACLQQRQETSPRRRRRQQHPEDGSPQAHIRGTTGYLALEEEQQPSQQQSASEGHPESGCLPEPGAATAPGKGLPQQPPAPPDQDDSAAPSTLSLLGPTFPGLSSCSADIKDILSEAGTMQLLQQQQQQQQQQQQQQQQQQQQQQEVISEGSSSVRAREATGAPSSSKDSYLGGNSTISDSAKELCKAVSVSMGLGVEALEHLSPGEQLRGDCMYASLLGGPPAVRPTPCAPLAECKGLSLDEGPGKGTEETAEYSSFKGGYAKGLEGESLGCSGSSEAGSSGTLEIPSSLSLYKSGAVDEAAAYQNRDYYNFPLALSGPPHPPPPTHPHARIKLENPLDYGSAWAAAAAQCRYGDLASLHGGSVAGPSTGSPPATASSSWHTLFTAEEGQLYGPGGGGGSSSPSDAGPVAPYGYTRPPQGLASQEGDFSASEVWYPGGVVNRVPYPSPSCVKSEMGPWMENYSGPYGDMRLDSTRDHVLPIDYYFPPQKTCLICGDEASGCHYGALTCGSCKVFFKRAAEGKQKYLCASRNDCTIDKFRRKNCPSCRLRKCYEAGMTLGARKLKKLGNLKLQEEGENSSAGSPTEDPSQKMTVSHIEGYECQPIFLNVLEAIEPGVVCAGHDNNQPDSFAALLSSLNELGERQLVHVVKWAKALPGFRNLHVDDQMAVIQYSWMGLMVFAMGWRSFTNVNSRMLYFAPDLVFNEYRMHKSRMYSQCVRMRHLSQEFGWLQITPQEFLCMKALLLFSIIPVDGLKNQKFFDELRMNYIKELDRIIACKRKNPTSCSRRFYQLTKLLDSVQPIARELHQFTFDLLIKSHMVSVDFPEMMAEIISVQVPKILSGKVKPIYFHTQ
Procedure: 1) Etude de l'affinité des produits de l'invention pour le récepteur androgène
Des rats mâles Sprague Dawley EOPS de 180-200 g, castrés de 24 heures, sont sacrifiés, les prostates prélevées, pesées et homogénéisées à 0°C à l'aide d'un potter verre-verre, dans une solution tamponnée (Tris 10mM, saccharose 0,25M, PMSF (phénylméthanesulfonylfluoride) 0,1mM, Molybdate de sodium 20mM, HCl pH 7,4; auxquels on ajoute extemporanément 2mM de DTT (DL dithiothreitol), à raison de 1 g de tissu pour 8 ml de tampon.
L'homogénat est ensuite ultracentrifugé à 0°C, 45 minutes à 105 000 g.
Calcul de l'affinité relative de liaison (ARL).
On trace les 2 courbes suivantes : le pourcentage de l'hormone tritiée liée B/T en fonction du logarithme de la concentration de l'hormone de référence froide et B/T en fonction du logarithme de la concentration du produit froid testé. On détermine la droite d'équation I50=(B/Tmax + B/Tmin)/2. B/T max= % de l'hormone tritiée liée pour une incubation de cette hormone tritiée à la concentration (T). B/T min= % de l'hormone tritiée liée pour une incubation de cette hormone tritiée à la concentration (T) en présence d'un grand excès d'hormone froide (2500.10^-9M).
Les intersections de la droite I50 et des courbes, permettent d'évaluer les concentrations de l'hormone de référence froide (CH) et du produit froid testé (CX) qui inhibent de 50 % la liaison de l'hormone tritiée sur le récepteur.

[1] = system: ornithine décarboxylase rénale; experiment: Androgen or anti-androgen activity by assay of renal ornithine decarboxylase in castrated mice, oral treatment; format: in vivo, souris mâles SWISS; conditions: kidneys taken 16 h after treatment; for Antagonisme (PO): with testosterone propionate 3 mg/kg s.c.
Procedure: 2) Détermination de l'activité androgène ou anti-androgène des produits de l'invention à l'aide du dosage de l'ornithine de carboxylase.
16 heures après les traitements, les animaux sont sacrifiés, les reins prélevés, puis homogénéisés à 0°C , à l'aide d'un broyeur téflon-verre dans 10 volumes de tampon Tris-HCl 50 mM (pH 7,4) contenant 250 uM de phosphate de pyridoxal, 0,1 mM EDTA, et 5 mM de dithiothreitol. L'homogenat est ensuite centrifugé à 105000 g pendant 45 mn.
A 37°C, l'ornithine décarboxylase rénale transforme un mélange isotopique d'ornithine froide et d'ornithine tritiée en putrescine froide et putrescine tritiée.
La putrescine est ensuite recueillie sur des papiers sélectifs, échangeurs d'ions. Après séchage, l'excès d'ornithine tritiée et froide non transformée est éliminé, par 3 lavages d'ammoniaque 0,1 M. Les papiers sont séchés, puis la radioactivité est comptée après addition de scintillant Aqualite.
Les résultats sont exprimés en fmoles ([…]) de putrescine tritiée formée/heure/mg de protéines.

Compound: CN1C(=O)N(c2ccc([N+](=O)[O-])c(C(F)(F)F)c2)C(=O)C1(C)C [Produit de l'exemple 1, 1-(4-nitro-3-(trifluorométhyl)phényl)-3,4,4-triméthyl-2,5-imidazolidinedione]
- ARL (affinité relative de liaison), Incubation : 30 minutes (récepteur androgène): 27,5
- ARL (affinité relative de liaison), Incubation : 24 heures (récepteur androgène): 3

Compound: CCN1C(=O)N(c2ccc([N+](=O)[O-])c(C(F)(F)F)c2)C(=O)C1(C)C [Produit de l'exemple 2, 5,5-diméthyl-1-éthyl-3-(4-nitro-3-(trifluorométhyl)phényl)-2,4-imidazolidinedione]
- ARL (affinité relative de liaison), Incubation : 30 minutes (récepteur androgène): 22
- ARL (affinité relative de liaison), Incubation : 24 heures (récepteur androgène): 6

Compound: CC(C)N1C(=O)N(c2ccc([N+](=O)[O-])c(C(F)(F)F)c2)C(=O)C1(C)C [Produit de l'exemple 4, 5,5-diméthyl-1-(1-méthyl éthyl)-3-(4-nitro-3-(trifluorométhyl)phényl)-2,4-imidazolidinedione]
- ARL (affinité relative de liaison), Incubation : 30 minutes (récepteur androgène): 21
- ARL (affinité relative de liaison), Incubation : 24 heures (récepteur androgène): 5

Compound: CN1C(=S)N(c2ccc(C#N)c(C(F)(F)F)c2)C(=N)C1(C)C [Produit de l'exemple 11, 4-(5-imino-2-thioxo-3,4,4-triméthyl-1-imidazolidinyl)-2-(trifluorométhyl)-benzonitrile]
- ARL (affinité relative de liaison), Incubation : 30 minutes (récepteur androgène): 28
- ARL (affinité relative de liaison), Incubation : 24 heures (récepteur androgène): 8
- Antagonisme (PO) ([1]; 3 mg/kg PO): 3 mg/kg : 83%

Compound: CN1C(=S)N(c2ccc(C#N)c(C(F)(F)F)c2)C(=O)C1(C)C [Produit de l'exemple 12, 4-(5-oxo-2-thioxo-3,4,4-triméthyl-1-imidazolidinyl)-2-(trifluorométhyl)-benzonitrile]
- ARL (affinité relative de liaison), Incubation : 30 minutes (récepteur androgène): 128
- ARL (affinité relative de liaison), Incubation : 24 heures (récepteur androgène): 92
- Antagonisme (PO) ([1]; 0,1 mg/kg PO): 0,1 mg/kg : 12%
- Antagonisme (PO) ([1]; 0,3 mg/kg PO): 0,3 mg/kg : 36%
- Antagonisme (PO) ([1]; 1 mg/kg PO): 1 mg/kg : 68%
- Antagonisme (PO) ([1]; 3 mg/kg PO): 3 mg/kg : 94%
- Antagonisme (PO) ([1]; 10 mg/kg PO): 10 mg/kg : 99%
- Angonisme (PO) ([1]; 10 mg/kg PO, without testosterone propionate): 10 mg/kg : 0%

Compound: CN1C(=S)N(c2ccc(C#N)c(C(F)(F)F)c2)C(=S)C1(C)C [Produit de l'exemple 13, 4-(2,5-dithioxo-3,4,4-triméthyl-1-imidazolidinyl)-2-(trifluorométhyl)-benzonitrile]
- ARL (affinité relative de liaison), Incubation : 30 minutes (récepteur androgène): 31
- ARL (affinité relative de liaison), Incubation : 24 heures (récepteur androgène): 39

Compound: CC1(C)NC(=S)N(c2ccc(C#N)c(C(F)(F)F)c2)C1=N [Produit de l'exemple 14, 4-(4,4-diméthyl-5-imino-2-thioxo-1-imidazolidinyl)-2-(trifluorométhyl)-benzonitrile]
- ARL (affinité relative de liaison), Incubation : 30 minutes (récepteur androgène): 27
- ARL (affinité relative de liaison), Incubation : 24 heures (récepteur androgène): 7
- Antagonisme (PO) ([1]; 3 mg/kg PO): 3 mg/kg : 87%

Compound: CC1(C)NC(=S)N(c2ccc(C#N)c(C(F)(F)F)c2)C1=O [Produit de l'exemple 15, 4-(4,4-diméthyl-5-oxo-2-thioxo-1-imidazolidinyl)-2-(trifluorométhyl)-benzonitrile]
- ARL (affinité relative de liaison), Incubation : 30 minutes (récepteur androgène): 69
- ARL (affinité relative de liaison), Incubation : 24 heures (récepteur androgène): 24
- Antagonisme (PO) ([1]; 0,3 mg/kg PO): 0,3 mg/kg : 4%
- Antagonisme (PO) ([1]; 1 mg/kg PO): 1 mg/kg : 82%
